Source: paper PMC9186362, “Design and biological evaluation of substituted 5,7-dihydro-6H-indolo[2,3-c]quinolin-6-one as novel selective Haspin inhibitors” (Journal of Enzyme Inhibition and Medicinal Chemistry, 2022)

Assays:
Experiment in all cases: SelectScreen ZLYTE
Format in all cases: biochemical
CHEK2 (CHK2) = molecular target: T1, CHEK2 (CHK2) (Homo sapiens, UniProt O96017); conditions: ATP Km, read-out: Percentage of inhibition
T1 construct: purchased Life Technologies
Outline: (§1)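 Percent inhibition values come from a one-concentration (1 μM) profiling run covering a wide set of kinases.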

SBK1 = molecular target: T2, SBK1 (Homo sapiens, UniProt Q52WX2); conditions: ATP Km, read-out: Percentage of inhibition
T2 construct: purchased Life Technologies (SelectScreen Whole Panel)
T2 sequence (Q52WX2 whole entry): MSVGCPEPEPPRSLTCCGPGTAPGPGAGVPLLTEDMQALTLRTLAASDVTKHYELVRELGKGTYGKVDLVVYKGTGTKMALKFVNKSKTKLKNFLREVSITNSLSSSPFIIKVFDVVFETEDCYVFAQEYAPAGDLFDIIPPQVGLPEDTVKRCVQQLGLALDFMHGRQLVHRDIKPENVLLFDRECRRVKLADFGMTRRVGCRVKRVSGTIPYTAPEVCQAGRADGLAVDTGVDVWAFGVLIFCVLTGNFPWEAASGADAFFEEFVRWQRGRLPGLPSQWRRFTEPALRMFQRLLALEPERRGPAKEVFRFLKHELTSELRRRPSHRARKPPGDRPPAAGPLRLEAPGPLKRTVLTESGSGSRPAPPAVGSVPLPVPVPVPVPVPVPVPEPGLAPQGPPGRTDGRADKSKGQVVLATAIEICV
Outline: as §1

RPS6KB1 (p70S6K) = molecular target: T3, RPS6KB1 (p70S6K) (Homo sapiens, UniProt P23443); conditions: ATP Km, read-out: Percentage of inhibition
T3 construct: purchased Life Technologies (SelectScreen Whole Panel service)
Outline: as §1

BRAF V599E = molecular target: T4, BRAF V599E (Homo sapiens, UniProt P15056, V600E); conditions: ATP 100 µM, read-out: Percentage of inhibition
T4 construct: purchased Life Technologies
Outline: as §1

CSNK1A1L = CSNK1A1L (Homo sapiens, UniProt Q8N752); conditions: ATP Km, read-out: Percentage of inhibition
Outline: as §1

PRKD1 (PKC mu) = molecular target: T5, PRKD1 (PKC mu) (Homo sapiens, UniProt Q15139); conditions: ATP Km, read-out: Percentage of inhibition
T5 construct: purchased Life Technologies (SelectScreen Whole Panel service)
Outline: as §1

ERBB2 (HER2) = molecular target: T6, ERBB2 (HER2) (Homo sapiens, UniProt P04626); conditions: ATP Km, read-out: Percentage of inhibition
T6 construct: purchased Life Technologies
Outline: as §1

EPHA4 = molecular target: T7, EPHA4 (Homo sapiens, UniProt P54764); conditions: ATP Km, read-out: Percentage of inhibition
T7 construct: purchased Life Technologies (SelectScreen)
Outline: as §1

SRMS (Srm) = molecular target: T8, SRMS (Srm) (Homo sapiens, UniProt Q9H3Y6); conditions: ATP Km, read-out: Percentage of inhibition
T8 construct: purchased Life Technologies (SelectScreen Whole Panel service)
T8 sequence (Q9H3Y6 whole entry): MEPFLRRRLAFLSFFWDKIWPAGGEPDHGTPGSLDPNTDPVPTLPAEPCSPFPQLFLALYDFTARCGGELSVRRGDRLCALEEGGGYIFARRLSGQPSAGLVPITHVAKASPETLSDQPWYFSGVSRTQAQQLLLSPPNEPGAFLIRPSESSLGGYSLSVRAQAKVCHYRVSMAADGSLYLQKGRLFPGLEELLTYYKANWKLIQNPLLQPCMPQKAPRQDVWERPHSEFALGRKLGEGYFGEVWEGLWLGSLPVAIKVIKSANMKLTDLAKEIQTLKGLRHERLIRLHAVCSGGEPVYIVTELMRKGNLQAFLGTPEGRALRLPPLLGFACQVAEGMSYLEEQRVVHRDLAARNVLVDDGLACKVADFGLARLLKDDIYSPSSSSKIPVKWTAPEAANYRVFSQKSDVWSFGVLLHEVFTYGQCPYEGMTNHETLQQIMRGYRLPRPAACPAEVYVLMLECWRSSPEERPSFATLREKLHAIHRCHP
Outline: as §1

FGFR2 N549H = molecular target: T9, FGFR2 N549H (Homo sapiens, UniProt P21802, N549H); conditions: ATP Km, read-out: Percentage of inhibition
T9 construct: purchased Life Technologies (SelectScreen service)
T9 sequence (P21802 22-821 N549H): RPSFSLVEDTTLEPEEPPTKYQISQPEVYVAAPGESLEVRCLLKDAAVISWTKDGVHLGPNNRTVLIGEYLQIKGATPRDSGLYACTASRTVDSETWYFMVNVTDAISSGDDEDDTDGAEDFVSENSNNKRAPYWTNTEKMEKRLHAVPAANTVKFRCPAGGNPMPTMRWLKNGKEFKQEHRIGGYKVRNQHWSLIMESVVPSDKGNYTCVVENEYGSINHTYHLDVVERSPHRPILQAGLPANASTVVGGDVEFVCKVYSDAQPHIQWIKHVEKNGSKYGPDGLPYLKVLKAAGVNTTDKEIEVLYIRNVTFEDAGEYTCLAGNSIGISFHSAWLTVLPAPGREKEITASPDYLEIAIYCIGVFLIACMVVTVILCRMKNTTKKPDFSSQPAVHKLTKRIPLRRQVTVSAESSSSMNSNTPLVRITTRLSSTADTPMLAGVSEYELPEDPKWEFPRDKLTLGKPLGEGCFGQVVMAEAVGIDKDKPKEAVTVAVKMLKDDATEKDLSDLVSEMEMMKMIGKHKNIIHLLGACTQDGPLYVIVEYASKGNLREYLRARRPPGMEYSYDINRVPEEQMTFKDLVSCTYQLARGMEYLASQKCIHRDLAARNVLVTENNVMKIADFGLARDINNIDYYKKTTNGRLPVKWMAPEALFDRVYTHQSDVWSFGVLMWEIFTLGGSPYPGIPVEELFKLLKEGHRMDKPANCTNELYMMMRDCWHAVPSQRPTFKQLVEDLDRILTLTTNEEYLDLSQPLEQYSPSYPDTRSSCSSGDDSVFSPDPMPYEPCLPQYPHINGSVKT
Outline: as §1

MAPK9 (JNK2) = molecular target: T10, MAPK9 (JNK2) (Homo sapiens, UniProt P45984); conditions: ATP 100 µM, read-out: Percentage of inhibition
T10 construct: purchased Life Technologies (SelectScreen service)
Outline: as §1

FES (FPS) = molecular target: T11, FES (FPS) (Homo sapiens, UniProt P07332); conditions: ATP Km, read-out: Percentage of inhibition
T11 construct: purchased Life Technologies (SelectScreen service)
Outline: as §1

ITK = molecular target: T12, ITK (Homo sapiens, UniProt Q08881); conditions: ATP Km, read-out: Percentage of inhibition
T12 construct: purchased Life Technologies (SelectScreen Whole Panel)
Outline: as §1

PLK1 = molecular target: T13, PLK1 (Homo sapiens, UniProt P53350); conditions: ATP Km, read-out: Percentage of inhibition
T13 construct: purchased Life Technologies (SelectScreen Whole Panel service)
Outline: as §1

DCAMKL2 (DCK2) = DCAMKL2 (DCK2) (Homo sapiens, UniProt Q8N568); conditions: ATP Km, read-out: Percentage of inhibition
Outline: as §1

ROS1 = molecular target: T14, ROS1 (Homo sapiens, UniProt P08922); conditions: ATP Km, read-out: Percentage of inhibition
T14 construct: purchased Life Technologies
Outline: as §1

CDKL5 = molecular target: T15, CDKL5 (Homo sapiens, UniProt O76039); conditions: ATP Km, read-out: Percentage of inhibition
T15 construct: purchased Life Technologies
Outline: as §1

MINK1 = MINK1 (Homo sapiens, UniProt Q8N4C8); conditions: ATP Km, read-out: Percentage of inhibition
Outline: as §1

PDGFRB (PDGFR beta) = molecular target: T16, PDGFRB (PDGFR beta) (Homo sapiens, UniProt P09619); conditions: ATP Km, read-out: Percentage of inhibition
T16 construct: purchased Life Technologies (SelectScreen service)
Outline: as §1

PRKCB2 (PKC beta II) = PRKCB2 (PKC beta II) (Homo sapiens, UniProt P05771); conditions: ATP Km, read-out: Percentage of inhibition
Outline: as §1

MKNK1 (MNK1) = MKNK1 (MNK1) (Homo sapiens, UniProt Q9BUB5); conditions: ATP Km, read-out: Percentage of inhibition
Sequence of MKNK1 (MNK1) (Q9BUB5 whole entry): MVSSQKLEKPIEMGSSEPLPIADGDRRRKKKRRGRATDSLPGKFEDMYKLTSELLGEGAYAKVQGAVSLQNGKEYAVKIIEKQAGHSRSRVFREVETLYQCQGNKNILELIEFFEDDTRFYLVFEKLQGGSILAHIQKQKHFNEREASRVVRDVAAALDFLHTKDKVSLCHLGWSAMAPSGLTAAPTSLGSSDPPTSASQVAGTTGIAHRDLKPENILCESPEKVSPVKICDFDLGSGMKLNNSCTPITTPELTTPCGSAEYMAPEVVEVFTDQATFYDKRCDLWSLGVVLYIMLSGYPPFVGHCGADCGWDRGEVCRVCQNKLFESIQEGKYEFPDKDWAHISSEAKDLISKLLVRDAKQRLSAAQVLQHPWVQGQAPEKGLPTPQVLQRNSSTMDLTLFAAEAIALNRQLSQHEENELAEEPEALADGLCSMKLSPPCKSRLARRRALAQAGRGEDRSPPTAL
Outline: as §1

PRKG2 (PKG2) = molecular target: T17, PRKG2 (PKG2) (Homo sapiens, UniProt Q13237); conditions: ATP Km, read-out: Percentage of inhibition
T17 construct: purchased Life Technologies
Outline: as §1

AMPK (A1/B2/G2) = AMPK (A1/B2/G2) (Homo sapiens, UniProt Q13131); conditions: ATP Km, read-out: Percentage of inhibition
Sequence of AMPK (A1/B2/G2) (Q13131 whole entry): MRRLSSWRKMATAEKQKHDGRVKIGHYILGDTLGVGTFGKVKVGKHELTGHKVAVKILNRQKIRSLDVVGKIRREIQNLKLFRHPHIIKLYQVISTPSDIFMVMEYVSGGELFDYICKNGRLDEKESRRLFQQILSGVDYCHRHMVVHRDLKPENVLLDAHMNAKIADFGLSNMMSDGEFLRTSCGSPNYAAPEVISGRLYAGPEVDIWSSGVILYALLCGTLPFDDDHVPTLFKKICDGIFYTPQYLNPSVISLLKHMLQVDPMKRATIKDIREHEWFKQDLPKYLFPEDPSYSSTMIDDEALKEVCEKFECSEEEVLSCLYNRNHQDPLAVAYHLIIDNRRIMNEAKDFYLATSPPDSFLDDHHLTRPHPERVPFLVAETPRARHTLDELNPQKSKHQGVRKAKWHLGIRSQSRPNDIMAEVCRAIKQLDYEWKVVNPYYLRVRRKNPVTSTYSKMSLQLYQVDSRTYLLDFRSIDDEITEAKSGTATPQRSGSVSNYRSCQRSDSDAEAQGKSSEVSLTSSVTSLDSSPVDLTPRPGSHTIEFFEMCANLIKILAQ
Sequence of AMPK (A1/B2/G2) (O43741 whole entry partner): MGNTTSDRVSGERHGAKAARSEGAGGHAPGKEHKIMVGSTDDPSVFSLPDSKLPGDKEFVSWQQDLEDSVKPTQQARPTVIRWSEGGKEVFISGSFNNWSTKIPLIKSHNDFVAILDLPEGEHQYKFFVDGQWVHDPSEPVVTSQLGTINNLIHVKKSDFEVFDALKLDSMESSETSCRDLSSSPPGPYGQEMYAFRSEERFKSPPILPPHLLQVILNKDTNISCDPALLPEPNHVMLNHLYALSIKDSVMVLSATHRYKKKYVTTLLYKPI
Sequence of AMPK (A1/B2/G2) (Q9UGJ0 whole entry partner): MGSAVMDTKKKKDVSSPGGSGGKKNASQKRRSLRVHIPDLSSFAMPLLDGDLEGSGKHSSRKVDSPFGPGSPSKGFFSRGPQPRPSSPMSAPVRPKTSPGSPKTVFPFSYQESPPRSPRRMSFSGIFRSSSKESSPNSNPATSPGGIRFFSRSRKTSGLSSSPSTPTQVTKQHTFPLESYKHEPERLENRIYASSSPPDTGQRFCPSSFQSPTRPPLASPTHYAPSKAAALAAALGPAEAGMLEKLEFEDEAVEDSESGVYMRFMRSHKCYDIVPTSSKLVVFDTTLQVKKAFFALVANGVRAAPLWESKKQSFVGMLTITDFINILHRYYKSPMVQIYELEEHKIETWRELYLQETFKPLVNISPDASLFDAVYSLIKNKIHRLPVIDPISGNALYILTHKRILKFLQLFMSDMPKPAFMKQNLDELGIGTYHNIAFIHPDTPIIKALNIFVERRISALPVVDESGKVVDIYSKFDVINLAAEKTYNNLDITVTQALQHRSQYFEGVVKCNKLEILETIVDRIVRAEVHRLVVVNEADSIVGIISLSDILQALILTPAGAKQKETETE
Outline: as §1

KIT T670I = molecular target: T18, KIT T670I (Homo sapiens, UniProt P10721, T670I); conditions: ATP Km, read-out: Percentage of inhibition
T18 construct: purchased Life Technologies
Outline: as §1

AMPK A2/B1/G1 = AMPK A2/B1/G1 (Homo sapiens, UniProt P54646); conditions: ATP Km, read-out: Percentage of inhibition
Outline: as §1

NEK1 = molecular target: T19, NEK1 (Homo sapiens, UniProt Q96PY6); conditions: ATP Km, read-out: Percentage of inhibition
T19 construct: purchased Life Technologies (SelectScreen Whole Panel service)
Outline: as §1

AXL = molecular target: T20, AXL (Homo sapiens, UniProt P30530); conditions: ATP Km, read-out: Percentage of inhibition
T20 construct: purchased Life Technologies
Outline: as §1

MAP2K1 (MEK1) = molecular target: T21, MAP2K1 (MEK1) (Homo sapiens, UniProt Q02750); conditions: ATP 100 µM, read-out: Percentage of inhibition
T21 construct: purchased Life Technologies (SelectScreen Whole Panel)
Outline: as §1

BTK = molecular target: T22, BTK (Homo sapiens, UniProt Q06187); conditions: ATP Km, read-out: Percentage of inhibition
T22 construct: purchased Life Technologies (SelectScreen service)
Outline: as §1

ROCK2 = molecular target: T23, ROCK2 (Homo sapiens, UniProt O75116); conditions: ATP Km, read-out: Percentage of inhibition
T23 construct: purchased Life Technologies
Outline: as §1

AURKB (Aurora B) = molecular target: T24, AURKB (Aurora B) (Homo sapiens, UniProt Q96GD4); conditions: ATP Km, read-out: Percentage of inhibition
T24 construct: purchased Life Technologies
T24 sequence (Q96GD4 whole entry): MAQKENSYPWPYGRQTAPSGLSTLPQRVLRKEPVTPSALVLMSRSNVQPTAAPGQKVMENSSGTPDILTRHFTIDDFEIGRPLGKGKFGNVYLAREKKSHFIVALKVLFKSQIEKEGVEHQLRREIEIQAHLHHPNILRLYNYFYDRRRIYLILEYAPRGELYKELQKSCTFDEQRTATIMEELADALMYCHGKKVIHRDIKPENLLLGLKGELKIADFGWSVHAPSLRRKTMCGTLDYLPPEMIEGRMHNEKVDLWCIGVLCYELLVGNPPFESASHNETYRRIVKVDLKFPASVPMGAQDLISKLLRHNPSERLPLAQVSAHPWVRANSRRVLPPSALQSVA
Outline: as §1

CDK2/cyclin A = molecular target: T25, CDK2/cyclin A (Homo sapiens, UniProt P24941); conditions: ATP Km, read-out: Percentage of inhibition
T25 construct: purchased Life Technologies
Outline: as §1

EPHB4 = EPHB4 (Homo sapiens, UniProt P54760); conditions: ATP Km, read-out: Percentage of inhibition
Sequence of EPHB4 (P54760 16-987): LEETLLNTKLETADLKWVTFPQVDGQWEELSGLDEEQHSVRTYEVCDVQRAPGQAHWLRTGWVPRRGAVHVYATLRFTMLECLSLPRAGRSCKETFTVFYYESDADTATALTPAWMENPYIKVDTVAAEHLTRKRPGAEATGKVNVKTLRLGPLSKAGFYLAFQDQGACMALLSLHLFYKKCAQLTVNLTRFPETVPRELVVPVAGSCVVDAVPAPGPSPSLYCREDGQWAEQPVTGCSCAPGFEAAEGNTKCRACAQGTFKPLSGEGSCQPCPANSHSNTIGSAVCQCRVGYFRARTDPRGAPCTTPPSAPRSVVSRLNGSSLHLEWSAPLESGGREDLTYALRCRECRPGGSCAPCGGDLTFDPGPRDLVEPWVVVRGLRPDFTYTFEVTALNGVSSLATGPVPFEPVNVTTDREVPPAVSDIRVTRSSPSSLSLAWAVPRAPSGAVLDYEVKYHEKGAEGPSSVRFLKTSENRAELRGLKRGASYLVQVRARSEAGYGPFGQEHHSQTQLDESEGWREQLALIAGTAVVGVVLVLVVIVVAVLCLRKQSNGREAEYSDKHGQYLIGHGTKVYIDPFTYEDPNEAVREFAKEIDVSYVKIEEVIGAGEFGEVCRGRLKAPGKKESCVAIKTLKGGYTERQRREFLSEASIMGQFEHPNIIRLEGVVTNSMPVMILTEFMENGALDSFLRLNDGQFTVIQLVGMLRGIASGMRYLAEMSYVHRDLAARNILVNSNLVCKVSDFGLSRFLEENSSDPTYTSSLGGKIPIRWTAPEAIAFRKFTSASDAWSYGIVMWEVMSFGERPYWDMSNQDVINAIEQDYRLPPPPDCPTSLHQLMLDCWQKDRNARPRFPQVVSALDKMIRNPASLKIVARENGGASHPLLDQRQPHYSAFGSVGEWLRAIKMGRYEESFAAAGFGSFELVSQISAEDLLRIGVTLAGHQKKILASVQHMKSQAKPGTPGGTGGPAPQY
Outline: as §1

GRK6 = molecular target: T26, GRK6 (Homo sapiens, UniProt P43250); conditions: ATP Km, read-out: Percentage of inhibition
T26 construct: purchased Life Technologies
Outline: as §1

PKN1 (PRK1) = molecular target: T27, PKN1 (PRK1) (Homo sapiens, UniProt Q16512); conditions: ATP Km, read-out: Percentage of inhibition
T27 construct: purchased Life Technologies
Outline: as §1

IKBKB (IKK beta) = molecular target: T28, IKBKB (IKK beta) (Homo sapiens, UniProt O14920); conditions: ATP Km, read-out: Percentage of inhibition
T28 construct: purchased Life Technologies (SelectScreen Whole Panel)
Outline: as §1

ZAP70 = molecular target: T29, ZAP70 (Homo sapiens, UniProt P43403); conditions: ATP Km, read-out: Percentage of inhibition
T29 construct: purchased Life Technologies (SelectScreen Whole Panel)
Outline: as §1

DYRK1A = molecular target: T30, DYRK1A (Homo sapiens, UniProt Q13627); conditions: ATP Km, read-out: Percentage of inhibition
T30 construct: purchased Life Technologies
Outline: as §1

PRKCH (PKC eta) = PRKCH (PKC eta) (Homo sapiens, UniProt P24723); conditions: ATP Km, read-out: Percentage of inhibition
Outline: as §1

## COc1ccc2[nH]c3c(=O)[nH]c4ccc(O)cc4c3c2c1 [Compound 55, 2-Hydroxy-10-methoxy-5,7-dihydro-6H-indolo[2,3-c]quinolin-6-one]
CHEK2 (CHK2)
  inhibition at 1 µM: 33%
SBK1
  inhibition at 1 µM: 1%
RPS6KB1 (p70S6K)
  inhibition at 1 µM: 12%
BRAF V599E
  inhibition at 1 µM: 96%
CSNK1A1L
  inhibition at 1 µM: 62%
PRKD1 (PKC mu)
  inhibition at 1 µM: 45%
ERBB2 (HER2)
  inhibition at 1 µM: 2%
EPHA4
  inhibition at 1 µM: 7%
SRMS (Srm)
  inhibition at 1 µM: 16%
FGFR2 N549H
  inhibition at 1 µM: 24%
MAPK9 (JNK2)
  inhibition at 1 µM: 12%
FES (FPS)
  inhibition at 1 µM: 25%
ITK
  inhibition at 1 µM: 49%
PLK1
  inhibition at 1 µM: 10%
DCAMKL2 (DCK2)
  inhibition at 1 µM: 6%
ROS1
  inhibition at 1 µM: 29%
CDKL5
  inhibition at 1 µM: 5%
MINK1
  inhibition at 1 µM: 66%
PDGFRB (PDGFR beta)
  inhibition at 1 µM: 23%
PRKCB2 (PKC beta II)
  inhibition at 1 µM: 13%
MKNK1 (MNK1)
  inhibition at 1 µM: 7%
PRKG2 (PKG2)
  inhibition at 1 µM: 37%
AMPK (A1/B2/G2)
  inhibition at 1 µM: 67%
KIT T670I
  inhibition at 1 µM: 4%
AMPK A2/B1/G1
  inhibition at 1 µM: 58%
NEK1
  inhibition at 1 µM: 17%
AXL
  inhibition at 1 µM: 37%
MAP2K1 (MEK1)
  inhibition at 1 µM: 98%
BTK
  inhibition at 1 µM: 24%
ROCK2
  inhibition at 1 µM: 4%
AURKB (Aurora B)
  inhibition at 1 µM: 41%
CDK2/cyclin A
  inhibition at 1 µM: 34%
EPHB4
  inhibition at 1 µM: 21%
GRK6
  inhibition at 1 µM: 32%
PKN1 (PRK1)
  inhibition at 1 µM: 4%
IKBKB (IKK beta)
  inhibition at 1 µM: 55%
ZAP70
  inhibition at 1 µM: 0%
DYRK1A
  inhibition at 1 µM: 96%
PRKCH (PKC eta)
  inhibition at 1 µM: 15%
